Measurements from patent US8846695B2, “Treatment for diabetes in patients with inadequate glycemic control despite metformin therapy comprising a DPP-IV inhibitor” (Boehringer Ingelheim International GmbH, priority 2009, dated 2014).

Tests used:
[1] = 12-week randomized double-blind add-on to metformin study: HbA1c and FPG; parameters: placebo corrected mean reduction in HbA1c: dose or concentration left out as unconfirmed
Procedure: Effects were compared to add-on of placebo (PBO) or of open label glimepiride (GLIM; 1 to 3 mg qd) in a 12-week randomized, double-blind study.
The primary endpoint was change from baseline in HbA1c, adjusted for prior antidiabetic medication.

[2] = Adverse events and hypoglycaemia in the 12-week add-on to metformin study; type: in vivo, human; settings: 1, 5 or 10 mg qd with metformin, 12 weeks
Description: In total, 106 patients (43.1%) experienced adverse events (AEs) with similar incidences across all treatments. Most frequently reported episodes were nasopharyngitis (7.5%), diarrhoea (3.3%), and nausea (3.0%). […] Ten patients (3.7%) experienced serious AEs but none of these events were considered drug-related.
The addition of BI 1356 to MET in patients with T2DM inadequately controlled on MET alone achieved clinically relevant and statistically significant reductions in HbA1c.

[3] = Thorough QT study, single dose, healthy female and male subjects (QTcI); type: in vivo, human; settings: therapeutic (5 mg) and supratherapeutic (100 mg)
Procedure: A thorough QT study of BI 1356, a potent and selective dipeptidyl peptidase-4 inhibitor, was performed in healthy female and male subjects, using 5 mg (therapeutic dose) and 100 mg. The study was a randomised, single-dose, placebo-controlled, double-blind, four-way crossover study with open-label moxifloxacin (400 mg) as positive control. Triplicate 12-lead electrocardiograms (ECGs) of 10 seconds' duration were recorded for all subjects pre-dose and at various time points over a 24-h period after each treatment. The primary parameter was the subject-specific heart rate corrected QT interval (QTcI).

[4] = human, in vivo
[5] = 5 mg daily, 12 weeks, add-on to metformin

Compound | placebo corrected mean reduction in HbA1c ([1]; Week 12, add-on to metformin, n=64) | drug-related hypoglycaemia [2] | prolongation of the QT interval [3] | percentage of patients achieving HbA1c lowering of ≧0.5% from baseline [1, 5] | percentage of patients achieving HbA1c lowering of ≧1.0% from baseline [1, 5] | percentage of patients achieving a HbA1c value [1, 5] | time at which maximum glucose-lowering effects are reached ([1]; 1, 5 and 10 mg once daily added to metformin, plateau thereafter) | form and path of excretion [4]
CCC1=C(C)CN(C(=O)NCCc2ccc(S(=O)(=O)NC(=O)N[C@H]3CC[C@H](C)CC3)cc2)C1=O [GLIM, glimepiride, reference compound] | −0.90% | – | – | – | – | – | – | –
CC#CCn1c(N2CCC[C@@H](N)C2)nc2c1c(=O)n(Cc1nc(C)c3ccccc3n1)c(=O)n2C [BI 1356] | – | no case of hypoglycaemia was reported | did not prolong the QT interval | 53.2% | 27.4% | 14.5% | 8 weeks | primarily excreted unchanged via the bile
